Source: US20240072809A1, “ASGPR-BINDING COMPOUNDS FOR THE DEGRADATION OF EXTRACELLULAR PROTEINS” (Avilar Therapeutics, Inc., priority 2020, published 2024)
pKd: −log10 of the molar value.

What follows are compounds tested against ASGPR (Homo sapiens (Human), UniProt P07306) (assay: Affinity to ASGPR measured by surface plasmon resonance (SPR)). Settings: ASGPR ligands with linker, Table 5; read-out: ASGPR_SPR Binding KD.
Format: binding

Chain of ASGPR (P07306 whole entry): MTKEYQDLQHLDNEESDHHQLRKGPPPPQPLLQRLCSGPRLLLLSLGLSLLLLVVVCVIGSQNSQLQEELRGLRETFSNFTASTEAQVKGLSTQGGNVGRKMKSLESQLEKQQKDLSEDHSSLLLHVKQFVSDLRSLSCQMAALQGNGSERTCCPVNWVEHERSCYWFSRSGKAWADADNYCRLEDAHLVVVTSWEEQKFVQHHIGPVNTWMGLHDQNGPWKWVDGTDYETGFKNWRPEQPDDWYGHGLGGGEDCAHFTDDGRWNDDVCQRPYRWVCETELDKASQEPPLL

| Compound | pKd |
| --- | --- |
| CC(=O)N[C@@H]1CO[C@H](COCCOCCOCCOCCNC(=O)CCOCC(COCCC(=O)NCCOCCOCCOCCOC[C@H]2OC[C@@H](NC(C)=O)[C@@H](O)[C@H]2O)(COCCC(=O)NCCOCCOCCOCCOC[C@H]2OC[C@@H](NC(C)=O)[C@@H](O)[C@H]2O)NC(=O)COCCOCCOCCNc2ccc([N+](=O)[O-])cc2[N+](=O)[O-])[C@H](O)[C@@H]1O [Compound 33, 3,3′-((2-(2-(2-(2-(2-((2,4-dinitrophenyl)amino)ethoxy)ethoxy)ethoxy)acetamido)propane-1,3-diyl)tris(oxy))tris(N-(1-((2R,3R,4R,5R)-5-acetamido-3,4-dihydroxytetrahydro-2H-pyran-2-yl)-2,5,8,11-tetraoxatridecan-13-yl)propanamide)] | > 4.00 |

Same assay, conditions: ASGPR ligands, Table 2; Biacore 8K, 25° C., steady state fit; read-out: SPR Binding External Calculation: KD

| pKd | Compound |
| --- | --- |
| > 4.00 | C=CC(=O)N[C@H]1[C@H](OC)O[C@H](CO)[C@H](O)[C@@H]1O [Compound A118, N-((2R,3R,4R,5R,6R)-4,5-dihydroxy-6-(hydroxymethyl)-2-methoxytetrahydro-2H-pyran-3-yl)acrylamide] |
| > 4.00 | CO[C@@H]1O[C@H](CO)[C@H](O)[C@H](O)[C@H]1Nc1nc(N2CCN(C)CC2)ns1 [Compound A116, (2R,3R,4R,5R,6R)-2-(hydroxymethyl)-6-methoxy-5-((3-(4-methylpiperazin-1-yl)-1,2,4-thiadiazol-5-yl)amino)tetrahydro-2H-pyran-3,4-diol] |

Same assay, conditions: ASGPR ligands, Table 4; class symbols; read-out: ASGPR_PR Binding KD

| Compound | pKd |
| --- | --- |
| OC[C@H]1OC[C@@H](N2CCOCC2)[C@@H](O)[C@H]1O [Compound A222, (2R,3R,4R,5R)-2-(hydroxymethyl)-5-morpholinotetrahydro-2H-pyran-3,4-diol] | 3.30 to 4.00 |
| OC[C@H]1OC[C@H](Nc2nc(C(F)(F)F)cs2)[C@@H](O)[C@H]1O [Compound A306] | > 4.00 |

Next, values leading:

| pKd | Compound |
| --- | --- |
| > 4.00 | COc1cc(C#N)cc(N[C@H]2CO[C@H](CO)[C@H](O)[C@@H]2O)n1 [Compound A364, 2-(((3S,4R,5R,6R)-4,5-dihydroxy-6-(hydroxymethyl)tetrahydro-2H-pyran-3-yl)amino)-6-methoxyisonicotinonitrile] |
| > 4.00 | C=CCO[C@H]1O[C@H](CO)[C@H](O)[C@H](O)[C@H]1Nc1nc(Cl)ns1 [Compound A405, (2R,3R,4R,5R,6S)-6-(allyloxy)-5-((3-chloro-1,2,4-thiadiazol-5-yl)amino)-2-(hydroxymethyl)tetrahydro-2H-pyran-3,4-diol] |
| > 4.00 | CS(=O)(=O)c1ccnc(N[C@H]2CO[C@H](CO)[C@H](O)[C@@H]2O)n1 [Compound A371, (2R,3R,4R,5S)-2-(hydroxymethyl)-5-((4-(methylsulfonyl)pyrimidin-2-yl)amino)tetrahydro-2H-pyran-3,4-diol] |
| > 4.00 | C=CCO[C@H]1O[C@H](CO)[C@H](O)[C@H](O)[C@H]1Nc1nccc(C(F)(F)F)n1 [Compound A406, (2R,3R,4R,5R,6S)-6-(allyloxy)-2-(hydroxymethyl)-5-((4-(trifluoromethyl)pyrimidin-2-yl)amino)tetrahydro-2H-pyran-3,4-diol] |
| > 4.00 | CO[C@H]1O[C@H](CO)[C@H](O)[C@H](O)[C@H]1Nc1cccc(C(F)(F)F)n1 [Compound A381] |
| > 4.00 | OC[C@H]1OC[C@H](Nc2nc3ccccc3s2)[C@@H](O)[C@H]1O [Compound A354, (2R,3R,4R,5S)-5-(benzo[d]thiazol-2-ylamino)-2-(hydroxymethyl)tetrahydro-2H-pyran-3,4-diol] |

Same assay, conditions: ASGPR ligands, Table 4; numeric lower bounds; read-out: ASGPR_PR Binding KD

| pKd | Compound |
| --- | --- |
| < 5.00 | CS(=O)(=O)c1nc(Cl)cc(N[C@H]2CO[C@H](CO)[C@H](O)[C@@H]2O)n1 [Compound A370, (2R,3R,4R,5S)-5-((6-chloro-2-(methylsulfonyl)pyrimidin-4-yl)amino)-2-(hydroxymethyl)tetrahydro-2H-pyran-3,4-diol] |
| < 3.70 | CO[C@@H]1O[C@H](CO)[C@H](O)[C@H](O)[C@H]1Nc1nc(C(=O)O)cs1 [Compound A385] |
| < 4.70 | N#Cc1cc(N[C@H]2CO[C@H](CO)[C@H](O)[C@@H]2O)nc(C#N)n1 [Compound A348, 6-(((3S,4R,5R,6R)-4,5-dihydroxy-6-(hydroxymethyl)tetrahydro-2H-pyran-3-yl)amino)pyrimidine-2,4-dicarbonitrile] |
